Laboratory results published in ChEMBL document CHEMBL1150922, “A new photosystem II electron transfer inhibitor from Sorghum bicolor” (J Nat Prod, 1998).
Activity calls are given as the source filed them. The rule behind the calls is not given here.

System: Lactuca sativa
Experiment: Phytotoxicity against lettuce seedlings assessed as inhibition of seed germination at 0.1 mM after 4 days
Assay type: functional, organism-based
Details: not given
In the case of `C=CC/C=C\C/C=C\CCCCCCCC1=C(OC)C(=O)C=C(OC)C1=O`, the Activity is reported as “inactive”.
With `C=CC/C=C\C/C=C\CCCCCCCC1=C(O)C(=O)C=C(OCC)C1=O` the Activity was “inactive”.
For `CCNc1nc(Cl)nc(NC(C)C)n1` [ATRAZINE], the Activity was “inactive”.
In the case of `C=CC/C=C\C/C=C\CCCCCCCC1=C(O)C(=O)C=C(OC)C1=O` [SORGOLEONE], the Activity is reported as “inactive”.

System: not listed separately
Experiment: Inhibition of photosystem 2 in spinach thylakoid membranes assessed as oxygen evolution
Assay type: cell membranes, Spinacia oleracea
Details: read-out: I50
With `C=CC/C=C\C/C=C\CCCCCCCC1=C(OC)C(=O)C=C(OC)C1=O` the IC50 was 280 nM.
`C=CC/C=C\C/C=C\CCCCCCCC1=C(O)C(=O)C=C(OCC)C1=O` gave an IC50 of 1070 nM.
`CCNc1nc(Cl)nc(NC(C)C)n1` [ATRAZINE] showed an IC50 of 930 nM.
`C=CC/C=C\C/C=C\CCCCCCCC1=C(O)C(=O)C=C(OC)C1=O` [SORGOLEONE] gave an IC50 of 100 nM.

System: Spinacia oleracea
Experiment: Reduction in light-induced chlorophyll fluorescence half-life in spinach thylakoids membrane at 0.3 to 1 uM
Assay type: functional, cell membranes
Details: not given
For `C=CC/C=C\C/C=C\CCCCCCCC1=C(OC)C(=O)C=C(OC)C1=O`, the Activity was “Active”.
For `C=CC/C=C\C/C=C\CCCCCCCC1=C(O)C(=O)C=C(OCC)C1=O`, the Activity was “Active”.
For `CCNc1nc(Cl)nc(NC(C)C)n1` [ATRAZINE], the Activity was “Active”.
In the case of `C=CC/C=C\C/C=C\CCCCCCCC1=C(O)C(=O)C=C(OC)C1=O` [SORGOLEONE], the Activity is reported as “Active”.

System: Lactuca sativa
Experiment: Phytotoxicity against lettuce seedlings assessed as inhibition of seed germination at >0.3 mM after 4 days
Assay type: functional, organism-based
Details: not given
With `C=CC/C=C\C/C=C\CCCCCCCC1=C(OC)C(=O)C=C(OC)C1=O` the Activity was “Active”.
With `C=CC/C=C\C/C=C\CCCCCCCC1=C(O)C(=O)C=C(OCC)C1=O` the Activity was “Active”.
In the case of `CCNc1nc(Cl)nc(NC(C)C)n1` [ATRAZINE], the Activity is reported as “Active”.
For `C=CC/C=C\C/C=C\CCCCCCCC1=C(O)C(=O)C=C(OC)C1=O` [SORGOLEONE], the Activity was “Active”.
